Measurements from ChEMBL document CHEMBL4354827, “Discovery of Novel, Potent, Brain-Permeable, and Orally Efficacious Positive Allosteric Modulator of α7 Nicotinic Acetylcholine Receptor [4-(5-(4-Chlorophenyl)-4-methyl-2-propionylthiophen-3-yl)benzenesulfonamide]: Structure-Activity Relationship and Preclinical Characterization” (J Med Chem, 2020).

Key:
[1] = Drug metabolism in rat liver microsomes assessed as metabolic rate at 1 uM preincubated for 5 mins followed by NADPH addition after 30 mins by LC-MS/MS analysis; format: ADME, Microsome; conditions: 0.5 h
[2] = Metabolic stability in dog liver microsomes assessed as compound remaining at 1 uM preincubated for 5 mins followed by NADPH addition and measured after 30 mins by LC-MS/MS analysis; format: ADME, Canis lupus familiaris, Microsome; conditions: read-out: Stability
[3] = Metabolic stability in monkey liver microsomes assessed as compound remaining at 1 uM preincubated for 5 mins followed by NADPH addition and measured after 30 mins by LC-MS/MS analysis; format: ADME, Macaca mulatta, Microsome; conditions: rhesus monkey, read-out: Stability
[4] = AUC (0 to 144 hrs) in Wistar rat at 1 mg/kg, iv after 0.083 to 144 hrs by LC-MS/MS analysis; format: ADME, organism-based; set-up: time < 144 hr, dose 1 mg/kg, route intravenous; conditions: in vivo
[5] = AUClast in Beagle dog at 10 mg/kg, po after 0.25 to 144 hrs by LC-MS/MS analysis; format: ADME, organism-based, Canis lupus familiaris; set-up: time upper 144 hr, dose 10 mg/kg, time lower 0.25 hr, route oral; conditions: in vivo
[6] = Cmax in Wistar rat at 1 mg/kg, iv after 0.083 to 144 hrs by LC-MS/MS analysis; format: ADME, organism-based; set-up: dose 1 mg/kg, route intravenous; conditions: in vivo
[7] = Tmax in Wistar rat at 1 mg/kg, iv after 0.083 to 144 hrs by LC-MS/MS analysis; format: ADME, organism-based; conditions: in vivo
[8] = Half life in Wistar rat at 1 mg/kg, iv after 0.083 to 144 hrs by LC-MS/MS analysis; format: ADME, organism-based; conditions: in vivo
[9] = Half life in Beagle dog at 10 mg/kg, po after 0.25 to 144 hrs by LC-MS/MS analysis; format: ADME, organism-based, Canis lupus familiaris; conditions: in vivo
[10] = Half life in BALB/c mouse at 1 mg/kg, iv after 0.083 to 144 hrs by LC-MS/MS analysis; format: ADME, organism-based; conditions: in vivo
[11] = Drug concentration in Wistar rat plasma at 10 mg/kg, po after 24 hrs by LC-MS/MS analysis; format: ADME, organism-based
[12] = Brain to plasma permeability coefficient, Kp in Wistar rat at 10 mg/kg, po after 4 hrs by LC-MS/MS analysis; format: ADME, organism-based
[13] = Brain to plasma permeability coefficient, Kp in Wistar rat at 10 mg/kg, po after 8 hrs by LC-MS/MS analysis; format: ADME, organism-based
[14] = Unbound brain-to-plasma concentration ratio in Wistar rat at 10 mg/kg, po after 1 hr by LC-MS/MS analysis; format: ADME, organism-based; conditions: read-out: K(p,uu,brain)
[15] = Unbound brain-to-plasma concentration ratio in Wistar rat at 10 mg/kg, po after 4 hrs by LC-MS/MS analysis; format: ADME, organism-based; conditions: read-out: K(p,uu,brain)
[16] = Tmax in Wistar rat plasma at 10 mg/kg, po after 1 to 144 hrs by LC-MS/MS analysis; format: ADME, organism-based
[17] = test system: Rattus norvegicus; assay: Memory enhancement effect in time-delay induced Wistar rat model of amnesia assessed as exploration time for object2 in acquisition trial at 3 mg/kg, po administered as single dose and measured on day 8 by novel object recognition test (reference value: 16.33 sec); format: functional
[18] = test system: Rattus norvegicus; assay: Memory enhancement effect in time-delay induced Wistar rat model of amnesia assessed as increase in exploration time for novel object in retention trial at 3 mg/kg, po administered as single dose and measured on day 9 by novel object recognition test (reference value: 12.06 sec); format: functional
[19] = test system: Rattus norvegicus; assay: Memory enhancement effect in scopolamine-induced Wistar rat model of amnesia assessed as increase in exploration time for novel object in retention trial at 0.5 mg/kg, po administered as single dose and measured on day 9 by novel object recognition test (reference value: 12.09 sec); format: functional
[20] = test system: Rattus norvegicus; assay: Memory enhancement effect in scopolamine-induced Wistar rat model of amnesia assessed as increase in novel object discrimination index at 0.15 mg/kg, po administered as single dose and measured on day 9 by novel object recognition test (reference value: 0.21); format: functional
[21] = test system: Rattus norvegicus; assay: Memory enhancement effect in time-delay induced Wistar rat model of amnesia assessed as exploration time for object2 at 1 mg/kg, po administered as single dose after acquisition trial by novel object recognition test (reference value: 21.07 sec); format: functional
[22] = test system: Rattus norvegicus; assay: Memory enhancement effect in time-delay induced Wistar rat model of amnesia assessed as exploration time for object1 in acquisition trial at 0.05 mg/kg, po for 7 days and measured on day 8 by novel object recognition test (reference value: 13.73 sec); format: functional
[23] = test system: Rattus norvegicus; assay: Memory enhancement effect in time-delay induced Wistar rat model of amnesia assessed as exploration time for object2 in acquisition trial at 0.05 mg/kg, po for 7 days and measured on day 8 by novel object recognition test (reference value: 11.76 sec); format: functional
[24] = test system: Rattus norvegicus; assay: Memory enhancement effect in time-delay induced Wistar rat model of amnesia assessed as exploration time for object1 in acquisition trial at 0.5 mg/kg, po for 7 days and measured on day 8 by novel object recognition test (reference value: 13.73 sec); format: functional
[25] = test system: Rattus norvegicus; assay: Memory enhancement effect in time-delay induced Wistar rat model of amnesia assessed as increase in discrimination index at 0.05 mg/kg, po for 7 days and measured on day 8 by novel object recognition test (reference value: 0.12); format: functional
[26] = test system: Rattus norvegicus; assay: Memory enhancement effect in scopolamine-induced Wistar rat model of amnesia assessed as exploration time for novel object in retention trial at 0.15 mg/kg, po for 7 days and measured on day 8 by novel object recognition test (reference value: 12.09 sec); format: functional
[27] = test system: Rattus norvegicus; assay: Memory enhancement effect in scopolamine-induced Wistar rat model of amnesia assessed as exploration time for object2 in acquisition trial at 0.50 mg/kg, po for 7 days and measured on day 8 by novel object recognition test (reference value: 15.63 sec); format: functional
[28] = test system: Rattus norvegicus; assay: Improvement in social recognition time delay-induced Sprague-Dawley rat model of amnesia assessed as increase in reduction in social investigation time at 3 mg/kg, po administered as single dose prior to 1 hr training and measured after 30 mins (reference value: 0.39%); format: functional; set-up: scale not given: the % may be the effect or the level left
[29] = test system: Rattus norvegicus; assay: Improvement in social recognition time delay-induced Sprague-Dawley rat model of amnesia assessed as increase in reduction in social investigation time at 1 mg/kg, po administered as single dose prior to 1 hr training and measured after 30 mins (reference value: 0.39%); format: functional; set-up: scale not given: the % may be the effect or the level left
[30] = test system: Rattus norvegicus; assay: Improvement in social recognition scopolamine-induced Sprague-Dawley rat model of amnesia assessed as increase in reduction in social investigation time at 1 mg/kg, po administered as single dose prior to 1 hr training and measured after 30 mins (reference value: 9.81%); format: functional; set-up: scale not given: the % may be the effect or the level left
[31] = test system: Rattus norvegicus; assay: Improvement in social recognition scopolamine-induced Sprague-Dawley rat model of amnesia assessed as reduction in recognition index at 1 mg/kg, po administered as single dose prior to 1 hr training and measured after 30 mins (reference value: 0.9); format: functional
[32] = test system: Rattus norvegicus; assay: Improvement in social recognition time delay-induced Sprague-Dawley rat model of amnesia assessed as increase in reduction in social investigation time at 0.15 mg/kg, po for 7 days and measured on day 9 (reference value: -0.5%); format: functional; set-up: scale not given: the % may be the effect or the level left
[33] = test system: Rattus norvegicus; assay: Improvement in social recognition time delay-induced Sprague-Dawley rat model of amnesia assessed as reduction in recognition index at 0.05 mg/kg, po for 7 days and measured on day 9 (reference value: 1.05); format: functional
[34] = Drug level in Sprague-Dawley rat plasma at 0.5 mg/kg, po for 7 days; format: ADME, organism-based

Work on `CCC(=O)c1sc(-c2ccc(Cl)cc2)c(C)c1-c1ccc(S(N)(=O)=O)cc1` yielded a Drug metabolism [1] of 0.01 nmol/min/mg, a remaining at 0.5 h, 1 µM [2] of 93% and a remaining at 0.5 h, 1 µM [3] of 79%. The AUC(0-t) at 144 h [4] was 27 µM·h, the AUC(0-t) [5] was 282 µM·h and the Cmax [6] was 1100 nM. The Tmax [7] was 4.8 min, the half-life [8] was 45 h and the half-life [9] was 54 h. For the same compound, the half-life [10] was 14 h, the concentration at 24 h [11] was 740 nM and the Kp at 4 h [12] was 10.7. The Kp at 8 h [13] was 7.7, the Kp uu at 1 h [14] was 0.56 and the Kp uu at 4 h [15] was 1.29. For the same compound, the Tmax [16] was 1 h, the Time [17] was 19.43 s and the Time [18] was 26.25 s. It also gave a Time [19] of 15.06 s, an Activity_index [20] of 0.5 and a Time [21] of 25.36 s. The Time [22] was 15.2 s, the Time [23] was 15.41 s and the Time [24] was 10.04 s. It also gave an Activity_index [25] of 0.27, a Time [26] of 12.8 s and a Time [27] of 16.55 s. The Activity [28] was 52.87%, the Activity [29] was 31.73% and the Activity [30] was 48.49%. It also gave an Activity_index [31] of 0.52, an Activity [32] of 43.63% and an Activity_index [33] of 0.81. It also gave a concentration at 168 h [34] of 1120 nM.
